Experimental data as given in patent US20210177751A1, “HYPOTONIC HYDROGEL FORMULATIONS FOR ENHANCED TRANSPORT OF ACTIVE AGENTS AT MUCOSAL SURFACES” (The Johns Hopkins University, priority 2017, published 2021).

What was measured:
C57/B6 mice = test: laser-induced choroidal neovascularization (CNV) in mice; type: in vivo, mouse; settings: topical daily for 7 days
Procedure: C57/B6 mice where used to test the topical delivery of sunitinib malate (5 uL at 4 mg/mL) and acriflavine (5 uL at 5 mg/mL) in preventing choroidal neovascularization (CNV) in mice after laser induced rupture of Bruch's membrane in three locations. After laser, both drugs either dissolved in 12% F127 or a aqueous vehicle control (saline or water), were dosed daily for 7 days.

[1] = system: retinal ganglion cells (RGCs); test: optic nerve crush after 5 daily topical doses, pigmented rats; type: in vivo, rat (Brown Norway); settings: in 12% F127, daily for 5 days before crush; 14 days after crush; pigmented rats (Brown Norway)
Procedure: Rats were dosed topically with sunitinib malate (5 uL at 4 mg/mL) in 12% F127 daily for 5 days unilaterally. Then, the optic nerve head was exposed and crushed unilaterally and the contralateral eye was used as the control for comparison. 14 days after crushing the nerve (without additional topical dosing), the tissues were isolated for qPCR for genes expressed by retinal ganglion cells (RGCs).

[2] = system: retinal ganglion cells (RGCs); test: optic nerve crush with once weekly topical dosing; type: in vivo, rat (Brown Norway); settings: Day 22
Procedure: Pigmented rats (Brown Norway) were dosed topically (5 uL at 4 mg/mL) with sunitinib malate in 12% F127 or in saline once weekly unilaterally. The optic nerve head was exposed and crushed unilaterally on Day 8 and the contralateral eye was used as the control for comparison. 14 days after crushing the nerve (Day 22), the tissues were isolated for qPCR for genes expressed by retinal ganglion cells (RGCs).

[3] = ocular tissue distribution in Dutch belted rabbits (LC-MS); type: in vivo, rabbit; settings: 4 mg/ml in 12% F127, daily for 14 days; tissues 6 h after final dose
Procedure: (§1) Sunitnib malate was dissolved in 12% F127 at a concentration of 4 mg/ml and dosed topically to pigmented (Dutch belted) rabbits and pigmented pigs (juvenile farm pigs) once per day for a total of 14 days or 5 days, respectively. Dosing in both rabbits and pigs occurred without anesthesia and 50 uL or 50˜100 uL of an eye drop was administered, respectively. However, dosing in pigs occurred while distracted with food. Tissues were collected 6 h after the final dose for rabbits and 1 h after the final dose for pigs. The drug concentrations were measured by LC-MS.

[4] = ocular tissue distribution in farm pigs (LC-MS); type: in vivo, pig; settings: 4 mg/ml in 12% F127, daily for 5 days; tissues 1 h after final dose
Procedure: as §1

[5] = dissolved in aqueous vehicle control (saline or water)

Row | Compound | suppression of choroidal neovascularization (C57/B6 mice; dissolved in 12% F127) | suppression of choroidal neovascularization (C57/B6 mice; [5]) | protection of RGCs (qPCR for RGC genes) [1] | protection of RGCs (qPCR for RGC genes) ([2]; in 12% F127, once weekly) | protection of RGCs (qPCR for RGC genes) ([2]; in saline, once weekly) | sunitinib and N-desethyl sunitinib levels in ocular tissues and fluids [3] | sunitinib and N-desethyl sunitinib levels in ocular tissues and fluids [4]
1 | acriflavine | efficacious in suppressing neovascularization in the choroid | Only the formulations containing 12% F127 were efficacious |  |  |  |  | 
2 | CCN(CC)CCNC(=O)c1c(C)[nH]c(/C=C2\C(=O)Nc3ccc(F)cc32)c1C [sunitinib malate] | efficacious in suppressing neovascularization in the choroid | Only the formulations containing 12% F127 were efficacious | protection of RGCs | Protection of RGCs was only observed when sunitinib malate was dosed in 12% F127 | not when sunitinib malate was dosed in saline | Therapeutically relevant levels of drug were found in the anterior and posterior segments | Therapeutically relevant levels of drug were found in the anterior and posterior segments
